# Measurements as given in paper PMC9176655, “Nebulized fusion inhibitory peptide protects cynomolgus macaques from measles virus infection” (Research Square, 2022).
# What was measured:
# [1] = cynomolgus monkey, in vivo
# Protocol: Following European recommendations, 2 five-year-old healthy female cynomolgus macaques, 3–4 kg, were housed under conventional conditions in the animal facility. […] Animals were acclimatized to laboratory conditions and trained to breathe an aerosol with a facemask spontaneously. Aerosol generated from 3 ml of 0.9% NaCl mixed with 74 MBq of DTPA radiolabeled with technetium 99m (^99mTc-DTPA) was administered through a facemask connected to the prototype mesh nebulizers, as used in MeV infection experiments (Fig. 2a). Deposition of aerosol was extrapolated based on the ^99mTc-DTPA signal measured at the end of the nebulization using a gamma camera (Orbiter 75 Ecam, Siemens healthcare, Erlangen, Germany)[68]. The nebulizer charge was measured by counting the radioactivity in the syringe (that contained ^99mTc-DTPA) before and after loading the nebulizers. Immediately after aerosol delivery, the animals were imaged using the gamma camera. The post-anterior static scintigraphy acquisition was performed for 120s. The amount of ^99mTc-DTPA deposited into airways and stomach and remaining in the nebulizer was determined from the digitalized images taking into account the tissue attenuation coefficients, previously determined by perfusion scintigraphy (intravenous injection of ^99mTc-macroagregates of albumin). […]
# [2] = Laser diffraction and nebulizer performance of aerosol from prototype mesh nebulizer; assay type: physicochemical; conditions: 3 ml of 4 mg/ml, mean + SD of four devices
# Protocol: The aerodynamic performances of the aerosols generated by the prototype mesh nebulizer were determined by laser diffraction using a Spraytec™ instrument (Malvern Instruments Ltd., Malvern, UK) and the Spraytec inhalation cell (Malvern Instruments Ltd., Malvern, UK) connected to an aspiration carried out by a vacuum pump set to 30–50L/min [69]. The prototype mesh nebulizers (n=4) were loaded with 3 ml of either NaCl 0.9% or the HCR4 peptide (4 mg/ml, dissolved as described above) and then connected to the inhalation cell. Nebulization duration was notified at the end of the complete aerosolization of the loaded 3 ml. Diffraction data and volume distribution were automatically registered by the Spraytec software.
# The output of nebulizer was determined by the difference between the weight of the nebulizer before and after nebulization and was expressed in percentage of the loaded volume. The output rate of each nebulizer (in ml/min) was then determined as the ratio between the output and the nebulization duration. At least, the residual volume corresponding to the volume of liquid remaining in the reservoir at the end of the nebulization was also determined by weighting the nebulizer before loading it and after nebulization.
# 25 Table S1. […]
# 28 1 VMD for Volume Median Diameter, presents the mean size of generated aerosols, measured by […]
# [3] = Solubility of peptide for nebulization; assay type: physicochemical; conditions: dissolved in filtered Milli-Q water to 4 mg/ml, pH adjusted to 7, HEPES buffer
# MeV [4] = conditions: intranasal administration, cited from earlier work
# Text: MeV uses several receptors to infect target cells. […] Infection is initiat ...
# MeV [5] = conditions: cell culture and organotypic brain cultures; cited from earlier work
# MeV [6] = assay: Plaque reduction assay on Vero-hSLAM cells; conditions: prototype mesh nebulizer
# MeV IC323-eGFP [7] = assay: Nebulized peptide in MeV-infected cynomolgus macaques; conditions: absence of fluorescent rash, PBMC infection, viremia, viral shedding, MeV-specific immune response
# Text: To assess antiviral efficacy of nebulized HRC4 peptide in NHPs, groups of 3 animals were infected with 10^4 PFU MeV IC323-eGFP by intra-tracheal inoculation, and either mock-treated with nebulized saline solution (C1, C2, and C3) or treated with nebulized HRC4 peptide (P1, P2, and P3) twenty-four and six hours before infection and twenty-four hours after infection (Fig. 6a). The NHPs were housed in cages accommodating two animals per cage for ethical reasons, so that one cage contained one peptide-treated and one saline-nebulized macaque.
# (a) Experimental design: cynomolgus monkeys (3 animals/group) were either nebulized with 3 ml of NaCl 0.9% (control group, C) or with 3 ml HRC4 peptide 4 mg/ml (experimental group, P), 24 h and 6 h before and 24 h after intra-tracheal infection with 10^4 PFU MeV IC323 eGFP. Blood samples were taken every 3 days for the first 16 days and fluorescence of the skin and mucosa tested at that time points. (b) Macroscopic manifestation of MeV infection, typical fluorescent rash observed on tongue, skin (back and chin) and palate (marked with white arrows), monitored under anesthesia using a blue light with orange filter. […] (d) Analysis of viremia by quantification of the percentage of GFP^+ peripheral blood mononuclear cells (PBMC) in the blood by flow cytometry and MeV-specific RNA in PBMCs and in throat swabs by RT-qPCR, during the course of infection. […]
# MeV IC323-eGFP [8] = assay: Serial viral passaging in presence of peptide, sequencing for escape variants; conditions: 1μM peptide added after infection, 8 serial passages on Vero SLAM cells, 100 PFU per passage, sequencing of viral RNA
Structure (SMILES),"Deposition in macaque, Lungs [1]",VMD ([2]; laser diffraction (Spraytec)),< 5µm ([2]; percentage of particles smaller than 5 µm),Solubility [3],Survival of mice (MeV [4]; humanized transgenic mouse models of lethal measles disease),Viral titer in cotton rat lungs (MeV [4]),Inhibition of the fusion process (MeV [5]),Antiviral activity after versus before nebulization (MeV [6]),Development of MeV infection (MeV IC323-eGFP [7]),Mutations in MeV F after 8th passage (MeV IC323-eGFP [8])
"O=C([O-])CN(CCN(CC(=O)[O-])CC(=O)[O-])CCN(CC(=O)[O-])CC(=O)[O-].[99Tc+4] [99mTC-DTPA, DTPA radiolabeled with technetium 99m]",11.4 +/- 3.1%,,,,,,,,,
CC[C@H](C)[C@H](NC(=O)[C@H](C)NC(=O)[C@H](CC(N)=O)NC(=O)CNC(=O)[C@H](CC(C)C)NC(=O)[C@H](CC(N)=O)NC(=O)[C@@H](NC(=O)CNC(=O)[C@@H](NC(=O)[C@H](CC(=O)O)NC(=O)[C@H](CC(C)C)NC(=O)[C@H](CCCNC(=N)N)NC(=O)[C@H](CCC(=O)O)NC(=O)[C@H](CC(C)C)NC(=O)[C@H](CO)NC(=O)[C@@H](NC(=O)[C@@H]1CCCN1C(=O)[C@@H]1CCCN1)[C@@H](C)CC)C(C)C)[C@@H](C)O)C(=O)N[C@@H](C)C(=O)N[C@@H](CCCCN)C(=O)N[C@@H](CC(C)C)C(=O)N[C@@H](CCC(=O)O)C(=O)N[C@@H](CC(=O)O)C(=O)N[C@@H](C)C(=O)N[C@@H](CCCCN)C(=O)N[C@@H](CCC(=O)O)C(=O)N[C@@H](CC(C)C)C(=O)N[C@@H](CC(C)C)C(=O)N[C@@H](CCC(=O)O)C(=O)N[C@@H](CO)C(=O)N[C@@H](CO)C(=O)N[C@@H](CC(=O)O)C(=O)N[C@@H](CCC(N)=O)C(=O)N[C@H](C(=O)N[C@@H](CC(C)C)C(=O)N[C@@H](CCCNC(=N)N)C(=O)NCC(=O)N[C@@H](CO)C(=O)NCC(=O)N[C@@H](CO)C(=O)NCC(=O)N[C@@H](CSC1CC(=O)N(CCCC(=O)NCCOCCOCCOCCOCCC(=O)NCCN(CCNC(=O)CCOCCOCCOCCOCCNC(=O)CCCN2C(=O)CC(SC[C@H](NC(=O)CNC(=O)[C@H](CO)NC(=O)CNC(=O)[C@H](CO)NC(=O)CNC(=O)[C@H](CCCNC(=N)N)NC(=O)[C@H](CC(C)C)NC(=O)[C@@H](NC(=O)[C@H](CCC(N)=O)NC(=O)[C@H](CC(=O)O)NC(=O)[C@H](CO)NC(=O)[C@H](CO)NC(=O)[C@H](CCC(=O)O)NC(=O)[C@H](CC(C)C)NC(=O)[C@H](CC(C)C)NC(=O)[C@H](CCC(=O)O)NC(=O)[C@H](CCCCN)NC(=O)[C@H](C)NC(=O)[C@H](CC(=O)O)NC(=O)[C@H](CCC(=O)O)NC(=O)[C@H](CC(C)C)NC(=O)[C@H](CCCCN)NC(=O)[C@H](C)NC(=O)[C@@H](NC(=O)[C@H](C)NC(=O)[C@H](CC(N)=O)NC(=O)CNC(=O)[C@H](CC(C)C)NC(=O)[C@H](CC(N)=O)NC(=O)[C@@H](NC(=O)CNC(=O)[C@@H](NC(=O)[C@H](CC(=O)O)NC(=O)[C@H](CC(C)C)NC(=O)[C@H](CCCNC(=N)N)NC(=O)[C@H](CCC(=O)O)NC(=O)[C@H](CC(C)C)NC(=O)[C@H](CO)NC(=O)[C@@H](NC(=O)[C@@H]3CCCN3C(=O)[C@@H]3CCCN3)[C@@H](C)CC)C(C)C)[C@@H](C)O)[C@@H](C)CC)[C@@H](C)CC)C(=O)O)C2=O)CCO[C@H]2CC[C@@]3(C)C(=CC[C@H]4[C@@H]5CC[C@H]([C@H](C)CCCC(C)C)[C@@]5(C)CC[C@@H]43)C2)C1=O)C(=O)O)[C@@H](C)CC (stereo partly shown) [HRC4],,4 μm,Approximately 58%,soluble in water,significant increase in survival of mice,reduction of the viral titer in cotton rat lungs,inhibited the fusion process,did not cause any loss of activity,abrogated the development of MeV infection in two out of three animals,no mutations
